Read-outs that look alike come from different tables or passages of the source. Blank lines part the entries; values can stand above or below the compound they belong to.
Tests used:
[1] = In vivo pharmacokinetic interaction study in Sprague-Dawley rats; conditions: for AUC(0-inf) / AUC(0-t) / Cmax / Tmax / half-life / CL/F: male, Sprague-Dawley, rat, plasma, po, 25 mg/kg, rat plasma, n = 5, mean ± S.D.; for CL/F: read-out: CLz/F (converted)
Protocol: Protein precipitation was used to remove proteins from plasma and extract the test materials. To this end, 100 µL of plasma sample was combined with 10 µL of the IS working solution (400 ng/mL) and 300 µL of acetonitrile. The mixture was then centrifuged at 13,000 rpm for 10 min at 4 °C to ensure complete protein precipitation. After centrifugation, the supernatant was carefully collected and transferred into a sample vial. Finally, 2.0 µL of sample was injected for UPLC-MS/MS analysis.
The study was approved by Institutional Animal Care and Use Committee of the First Affiliated Hospital of Wenzhou Medical University (Approval No. WYYY-IACUC-AEC-2024-079). The experimental animals were cared in accordance with the Guide for the Care and Use of Laboratory Animals issued by the National Research Council, complying with the ARRIVE guidelines. The 6–8 weeks old Sprague-Dawley rats were obtained from Vital River Laboratory Animal Technology Co., Ltd (China, Zhejiang). The rats were housed at 25 °C and given a 14-day acclimation period under experimental conditions to reduce potential variability.
Due to the similarity between their hepatic enzyme system and humans, SD male rats are widely used in pharmacokinetics ([Riccardi et al., 2018]; [Martignoni, Groothuis & De Kanter, 2006]). A total of 10 SD male rats (200 ± 20 g) were randomly divided into two groups (n = 5): Group A (control group) and Group B (experimental group). The animals were fasted for 12 h prior to the experiment but had free access to water. […] And the concentration of tropifexor was determined to be 20 µg/kg based on body surface area conversion from human administered doses in prior literature ([Chen et al., 2022a]). Experimental group was received of tropifexor (20 µg/kg) via oral gavage, whereas control group was administered of an equivalent volume of corn oil. […] Blood samples were then collected at different time points at 0.5, 1, 1.5, 2, 4, 8, 12, 24, and 48 h after administration. Each blood sample (approximately 0.3 mL) was taken from the caudal veins, and was collected into 1.5 mL heparinized polyethylene tubes. After centrifuged at 13,000 rpm for 10 min, the supernatant was collected and stored at −80 °C. The plasma sample was treated according to 2.4 Pre-treatment of samples before UPLC-MS/MS analysis.
Pharmacokinetic parameters were calculated using the Drug and Statistics (DAS) software (version 3.0 software, Mathematical Pharmacology Professional Committee of China, Shanghai, China) with non-compartment model analyses based on the input data of drug administration route, dosage, drug concentration, and time.

[2] = Stability of analytes in rat plasma (UPLC-MS/MS method validation); type: in vitro ADME; conditions: n = 5
Protocol: The sensitivity of the method was reflected by the lower limit of quantification (LLOQ), which was also the lowest quantitative point. The LLOQ and three QC samples were obtained by the same method. […] All chemicals and solutions were stored at −80 °C for further use. Protein precipitation was used to remove proteins from plasma and extract the test materials. […] The mixture was then centrifuged at 13,000 rpm for 10 min at 4 °C to ensure complete protein precipitation. After centrifugation, the supernatant was carefully collected and transferred into a sample vial. Finally, 2.0 µL of sample was injected for UPLC-MS/MS analysis. The calibration curve, selectivity, accuracy, precision, recovery, matrix effect, and stability of the method established in this study were validated according to the FDA Bioanalytical Method Validation Guidance and the guidelines from the National Medical Products Administration (NMPA). Detailed information regarding the evaluation could be found in the Results and Discussion sections.

[3] = parameters: method as in Ou, 2011; conditions: humans, single oral dose of 250 mg/d; ref Ou, 2011; cited from earlier work
[4] = parameters: method as in Qiu et al., 2016; conditions: ref Qiu et al., 2016, cited from earlier work
in vitro [5] = conditions: human, human liver microsomes, pH 7.4, Km of crizotinib, HLM 0.3 mg/mL, 1 mM NADPH, 0.1–50 µM crizotinib
[6] = parameters: method as in Xu et al., 2015; conditions: compared to a single oral dose of 150 mg crizotinib; ref Xu et al., 2015; cited from earlier work
[7] = system: rat liver microsomes (RLM); assay: Enzyme kinetics of crizotinib in rat liver microsomes (Michaelis-Menten)
Protocol: (§1) Before measurement, the mixture without NADPH was pre-incubated at 37 °C for 5 min. Then, one mM of NADPH was given to incubate the reaction in a water bath with shaking at a rate of 200 times/min. After 30 min, the reaction was terminated by cooling at −80 °C. Next, 300 µL acetonitrile and 10 µL of the IS working solution were added to the mixture. After shaking for 2 min, the supernatant was obtained by centrifugation at 13,000 rpm for 10 min and subjected to UPLC-MS/MS analysis.
(§2) The Km, IC50, the Lineweaver-Burk plot and the mean plasma concentration–time curve were calculated and plotted using GraphPad Prism 9.0 software (GraphPad Software Inc., California, United States).

[8] = parameters: method as in Johnson et al., 2015; conditions: humans; ref Johnson et al., 2015; cited from earlier work
[9] = cited from earlier work
[10] = parameters: method as in Chen, Li & Chen, 2022; conditions: PBPK model, cancer patients; ref Chen, Li & Chen, 2022; cited from earlier work
RLM = system: RLM; parameters: method as in Wang et al., 2024; conditions: read-out: Km of crizotinib, ref Wang et al., 2024; cited from earlier work
in vitro [11] = conditions: rat, rat liver microsomes, pH 7.4
Protocol: as §1, §2

[12] = parameters: method as in Badman et al., 2020; conditions: healthy volunteers, single dose of up to three mg; ref Badman et al., 2020; cited from earlier work
[13] = parameters: method as in Chen et al., 2022b; conditions: ref Chen et al., 2022b; cited from earlier work
[14] = molecular target: crizotinib metabolism in human liver microsomes (HLM) (Homo sapiens, UniProt P08684); assay: Inhibition of crizotinib metabolism by tropifexor in HLM (IC50, Lineweaver-Burk); type: in vitro ADME
Chain of crizotinib metabolism in human liver microsomes (HLM) (P08684 2-503): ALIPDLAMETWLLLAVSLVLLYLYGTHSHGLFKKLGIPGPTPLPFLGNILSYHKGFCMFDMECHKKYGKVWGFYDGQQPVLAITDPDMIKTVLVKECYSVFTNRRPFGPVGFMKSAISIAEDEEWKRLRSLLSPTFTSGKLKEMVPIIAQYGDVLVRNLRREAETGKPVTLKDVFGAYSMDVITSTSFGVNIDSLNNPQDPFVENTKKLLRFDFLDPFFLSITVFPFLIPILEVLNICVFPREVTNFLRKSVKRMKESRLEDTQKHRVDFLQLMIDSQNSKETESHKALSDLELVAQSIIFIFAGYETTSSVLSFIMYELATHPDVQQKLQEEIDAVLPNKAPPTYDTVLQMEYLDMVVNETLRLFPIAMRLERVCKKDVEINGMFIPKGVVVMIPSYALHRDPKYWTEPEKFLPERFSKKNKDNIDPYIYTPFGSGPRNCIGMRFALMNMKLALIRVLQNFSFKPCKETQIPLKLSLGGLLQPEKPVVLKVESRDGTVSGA

[15] = system: crizotinib metabolism in rat liver microsomes (RLM); assay: Inhibition of crizotinib metabolism by tropifexor in RLM (IC50, Lineweaver-Burk); type: in vitro ADME
[16] = group Crizotinib + Tropifexor: oral tropifexor 20 µg/kg 30 min before oral crizotinib 25 mg/kg
[17] = group Crizotinib alone: single oral crizotinib 25 mg/kg
[18] = rats, compared to control group

AUC(0-inf) [1, 16]: 880 ± 269 ng·h/mL
AUC(0-t) [1, 16]: 877 ± 268 ng·h/mL
Cmax [1, 16]: 74.3 ± 26.8 ng/mL
Tmax [1, 16]: 8.8 ± 1.79 h
half-life [1, 16]: 5.78 ± 1.79 h
CL/F [1, 16]: 507 mL/min/kg
AUC(0-inf) [1, 17]: 605 ± 99.1 ng·h/mL
AUC(0-t) [1, 17]: 603 ± 97.7 ng·h/mL
Cmax [1, 17]: 51 ± 14.4 ng/mL
Tmax [1, 17]: 8 h
half-life [1, 17]: 4.82 ± 1.18 h
CL/F [1, 17]: 704 mL/min/kg
decrease of CLz/F on co-administration of tropifexor [1, 18]: 27.9%
Stability RE ([2]; 2 ng/mL, 10 °C (4 h)): 2.2%
Stability RE ([2]; 2 ng/mL, 21 days at −80 °C): 14.7%
Stability RE ([2]; 2 ng/mL, room temperature (3 h)): 9.9%
Stability RE ([2]; 2 ng/mL, three freeze-thaw (−80 °C/RT)): 11.9%
Stability RE ([2]; 40 ng/mL, 10 °C (4 h)): 0.6%
Stability RE ([2]; 40 ng/mL, 21 days at −80 °C): 5.2%
Stability RE ([2]; 40 ng/mL, room temperature (3 h)): 2.0%
Stability RE ([2]; 40 ng/mL, three freeze-thaw (−80 °C/RT)): −0.7%
Stability RE ([2]; 80 ng/mL, 10 °C (4 h)): −0.6%
Stability RE ([2]; 80 ng/mL, 21 days at −80 °C): 5.9%
Stability RE ([2]; 80 ng/mL, room temperature (3 h)): 3.0%
Stability RE ([2]; 80 ng/mL, three freeze-thaw (−80 °C/RT)): −0.7%
Compound: C[C@@H](Oc1cc(-c2cnn(C3CCNC(=O)C3)c2)cnc1N)c1c(Cl)ccc(F)c1Cl (some centres unmarked) [2-Keto crizotinib]

Km at 30 min (in vitro [5]): 15 µM
Vmax [7]: 0.01457 pmol/min/µg protein
AUC(0-inf) [1, 16]: 5670 ng·h/mL
AUC(0-t) [1, 16]: 5560 ng·h/mL
Cmax [1, 16]: 326 ± 41 ng/mL
Tmax [1, 16]: 8.8 ± 1.79 h
half-life [1, 16]: 8.23 ± 1.65 h
CL/F [1, 16]: 76 mL/min/kg
AUC(0-inf) [1, 17]: 4140 ng·h/mL
AUC(0-t) [1, 17]: 4100 ng·h/mL
Cmax [1, 17]: 237 ± 45.3 ng/mL
Tmax [1, 17]: 8.8 ± 1.79 h
half-life [1, 17]: 6.83 ± 0.77 h
CL/F [1, 17]: 102 mL/min/kg
increase of AUC(0−t) on co-administration of tropifexor [1, 18]: 35.7%
increase of AUC(0−∞) on co-administration of tropifexor [1, 18]: 36.9%
Stability RE ([2]; 5 ng/mL, 10 °C (4 h)): 0.5%
Stability RE ([2]; 5 ng/mL, 21 days at −80 °C): −1.9%
Stability RE ([2]; 5 ng/mL, room temperature (3 h)): −9.0%
Stability RE ([2]; 5 ng/mL, three freeze-thaw (−80 °C/RT)): −8.3%
Stability RE ([2]; 120 ng/mL, 10 °C (4 h)): 5.9%
Stability RE ([2]; 120 ng/mL, 21 days at −80 °C): 4.7%
Stability RE ([2]; 120 ng/mL, room temperature (3 h)): −6.9%
Stability RE ([2]; 120 ng/mL, three freeze-thaw (−80 °C/RT)): −7.1%
Stability RE ([2]; 240 ng/mL, 10 °C (4 h)): 3.6%
Stability RE ([2]; 240 ng/mL, 21 days at −80 °C): 6.9%
Stability RE ([2]; 240 ng/mL, room temperature (3 h)): −1.6%
Stability RE ([2]; 240 ng/mL, three freeze-thaw (−80 °C/RT)): −7.4%
Km at 30 min (in vitro [11]): 1 µM
Compound: C[C@@H](Oc1cc(-c2cnn(C3CCNCC3)c2)cnc1N)c1c(Cl)ccc(F)c1Cl [crizotinib, Crizotinib]
time at which Cmax was observed [3]: 4 h
Cmax ([4]; SD rats, oral 24 mg/kg): 309 ± 39.8 ng/mL
Tmax ([4]; SD rats, oral 24 mg/kg): 2.00 ± 0.00 h
oral absolute bioavailability ([4]; rats): 68.6 ± 9.63%
increase in AUC on co-administration with ketoconazole [6]: 2.2 fold
drug excreted unchanged in the feces [8]: approximately 63%
likelihood of crizotinib-induced hepatotoxicity, patients with pre-existing liver conditions vs without liver disease ([9]; ref Jung et al., 2018): 2.3 times
patients with elevated alanine aminotransferase (ALT) levels ([9]; standard dose of crizotinib, ref Kazandjian et al., 2014): 17%
patients with Grade 1 or 2 liver abnormalities ([9]; typically within two months of treatment, reversible, ref Revol et al., 2020): 30%
predicted increase of AUC when co-administered with fluconazole [10]: 58%
predicted increase of AUC when co-administered with itraconazole [10]: 79%
predicted increase of AUC when co-administered with voriconazole [10]: 84%
Km (RLM): 4.61 ± 0.28 µM

Compound: O=C(O)c1cc(F)c2nc(N3[C@@H]4CC[C@H]3C[C@@H](OCc3c(-c5ccccc5OC(F)(F)F)noc3C3CC3)C4)sc2c1 [tropifexor, Tropifexor]
safety and tolerability [12]: safe and well-tolerated
decrease in Cmax on co-administration with a CYP3A4 inhibitor [13]: 9%
decrease in Cmax on co-administration with the CYP3A4 inducer rifampin [13]: 55%
inhibition mechanism on crizotinib metabolism [14]: competitive and non-competitive
α [14]: 2.71
IC50 at 0.5 h ([14]; human, liver microsomes, pH 7.4, IC50 of tropifexor on crizotinib metabolism, crizotinib at Km): 4.3 µM
Ki at 0.5 h ([14]; human, liver microsomes, pH 7.4, n = 3): 4.93 µM
αKi ([14]; n = 3): 13.38 µM
inhibition mechanism on crizotinib metabolism [15]: non-competitive and uncompetitive
α [15]: 0.66
Ki ([15]; n = 3): 5.6 µM
αKi ([15]; n = 3): 3.72 µM
IC50 ([15]; read-out: IC50 of tropifexor on crizotinib metabolism, crizotinib at Km): 4.43 µM

— PMC12553364 (PeerJ, 2025)
